This note sets out measurements from US8399674B2, “Quinolines” (Hoffman-La Roche Inc., priority 2007, dated 2013).

In data set [1] the target is T1, recombinant human 5-HT5A receptor (Homo sapiens, UniProt P47898).
T1 construct: expressed in transfected cells; host or cells: HEK-EBNA (Human Embryonic Kidney-EBNA) cells, transient transfection; membranes
Briefly: [3H]LSD radioligand binding assay, membranes of HEK-EBNA cells transiently expressing the receptor. To be noted: [3H]LSD approx. 1 nM, 120 min room temperature, Ki from IC50 by Cheng-Prussoff equation, read-out: Ki (affinity towards the human 5-HT5A receptor). As for the experimental part:
A [^3H] LSD radioligand binding assay was used to determine the affinity of the compounds for the recombinant human 5-HT5A receptor, in membranes from transiently (cDNA) expressed 5-HT5A receptors in Human Embryonic Kidney-EBNA (HEK-EBNA) cells.
Assay buffer consisted of Tris (50 mM) buffer containing 1 mM EGTA, 10 mM MgCl2 (pH 7.4) and 10 μM pargyline. The binding assay was carried out in 96-well-plates in the presence of [^3H]LSD (approximately 1 nM), approximately 2 μg/well of membrane protein, and 0.5 mg of Ysi-poly-1-lysine SPA beads in a final volume of 200 μl of buffer. Non-specific binding was defined using methiothepin 2 μM. Compounds were tested at 10 concentrations. All assays were conducted in duplicate and repeated at least two times. Assay plates were incubated for 120 min at room temperature before centrifugation. Bound ligand was determined using a Packard Topcount scintillation counter. IC50 values were calculated using a non-linear curve fitting program and Ki values calculated using the Cheng-Prussoff equation.

T1 sequence (P47898 whole entry): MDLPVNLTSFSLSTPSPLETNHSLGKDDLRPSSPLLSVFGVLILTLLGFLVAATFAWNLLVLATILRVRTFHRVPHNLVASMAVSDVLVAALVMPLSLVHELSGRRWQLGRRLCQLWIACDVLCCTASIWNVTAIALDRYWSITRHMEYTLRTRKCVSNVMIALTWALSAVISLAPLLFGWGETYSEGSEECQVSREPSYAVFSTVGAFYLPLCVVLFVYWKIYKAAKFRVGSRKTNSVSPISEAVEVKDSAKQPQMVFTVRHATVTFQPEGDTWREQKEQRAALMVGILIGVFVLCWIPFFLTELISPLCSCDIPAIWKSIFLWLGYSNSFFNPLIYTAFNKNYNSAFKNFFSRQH

Usually melting point stands for the temperature, or range, at which the solid turns liquid. `COc1ccccc1CNC(=O)c1ccc2nc(NCc3ccccc3OC)ccc2c1` [Example 76, 2-(2-Methoxy-benzylamino)-quinoline-6-carboxylic acid 2-methoxy-benzylamide] returned a melting point of 217 °C.
`COc1ccccc1CNc1ccc2cc(Nc3ncccn3)ccc2n1` [Example 84, N2-(2-Methoxy-benzyl)-N6-pyrimidin-2-yl-quinoline-2,6-diamine] returned a melting point of 175 °C.
For the compound `COc1ccccc1CNc1ccc2cc(Nc3nnc(C)o3)ccc2n1` [Example 85, N2-(2-Methoxy-benzyl)-N6-(5-methyl-[1,3,4]oxadiazol-2-yl)-quinoline-2,6-diamine], the melting point came to 183 °C.
Take `COc1ccccc1CNc1ccc2cc(Nc3nc(C)no3)ccc2n1` [Example 86, N2-(2-Methoxy-benzyl)-N6-(3-methyl-[1,2,4]oxadiazol-5-yl)-quinoline-2,6-diamine]: the melting point is 175 °C.
The term Ki denotes a dissociation constant, usually derived from enzyme kinetics or from competition with a known ligand. For `CCn1nnc(Nc2ccc3nc(NCc4ccccc4OC)ccc3c2)n1` [Example 87, N6-(2-Ethyl-2H-tetrazol-5-yl)-N2-(2-methoxy-benzyl)-quinoline-2,6-diamine], the melting point amounted to 190 °C. In data set [1], the Ki was 44 nM.
In turn, `COc1ccccc1CNc1ccc2cc(Nc3cc(C)on3)ccc2n1` [Example 88, N2-(2-Methoxy-benzyl)-N6-(5-methyl-isoxazol-3-yl)-quinoline-2,6-diamine] showed a melting point of 132 °C. Besides, in data set [1], the Ki amounted to 26 nM.
Consider `COc1ccccc1CNc1ccc2cc(Nc3nc(C)cc(C)n3)ccc2n1` [Example 89, N6-(4,6-Dimethyl-pyrimidin-2-yl)-N2-(2-methoxy-benzyl)-quinoline-2,6-diamine], for which the melting point was determined as 157.5 °C.
The compound `COc1ccccc1CNc1ccc2cc(Nc3nccc(C)n3)ccc2n1` [Example 90, N2-(2-Methoxy-benzyl)-N6-(4-methyl-pyrimidin-2-yl)-quinoline-2,6-diamine] registered a melting point of 125 °C. The Ki in data set [1] was found to be 33 nM.
Turning to `COc1ccccc1CNc1ccc2cc(Nc3ncccc3C)ccc2n1` [Example 91, N2-(2-Methoxy-benzyl)-N6-(3-methyl-pyridin-2-yl)-quinoline-2,6-diamine], the melting point stood at 163 °C.
`COc1ccccc1CNc1ccc2cc(Nc3ccccn3)ccc2n1` [Example 92, N2-(2-Methoxy-benzyl)-N6-pyridin-2-yl-quinoline-2,6-diamine] came in with a melting point of 134 °C. Also, the inhibition constant (Ki) in data set [1] stood at 34 nM.
`COc1ccccc1CNc1ccc2cc(Nc3cccc(C)n3)ccc2n1` [Example 93, N2-(2-Methoxy-benzyl)-N6-(6-methyl-pyridin-2-yl)-quinoline-2,6-diamine] had a melting point of 134 °C.
The compound `COc1ccccc1CNc1ccc2cc(Nc3nccc(C(F)(F)F)n3)ccc2n1` [Example 94, N2-(2-Methoxy-benzyl)-N6-(4-trifluoromethyl-pyrimidin-2-yl)-quinoline-2,6-diamine] came in with a melting point of 114 °C. For the same compound, in data set [1], the Ki was 30 nM.
The compound `COc1ccccc1CNc1ccc2cc(Nc3nnn(C(C)(C)C)n3)ccc2n1` [Example 95, N6-(2-tert-Butyl-2H-tetrazol-5-yl)-N2-(2-methoxy-benzyl)-quinoline-2,6-diamine] came in with a melting point of 156 °C.
`COc1ccccc1CNc1ccc2cc(Nc3nnc(C4CC4)o3)ccc2n1` [Example 96, N6-(5-Cyclopropyl-[1,3,4]oxadiazol-2-yl)-N2-(2-methoxy-benzyl)-quinoline-2,6-diamine] registered a melting point of 199 °C. Besides, the Ki in data set [1] worked out at 47 nM.
In the case of `COc1ccccc1CNc1ccc2cc(Nc3nnc(C(F)(F)F)o3)ccc2n1` [Example 97, N2-(2-Methoxy-benzyl)-N6-(5-trifluoromethyl-[1,3,4]oxadiazol-2-yl)-quinoline-2,6-diamine], the melting point was found to be 198 °C.
Regarding `COc1ccccc1CNc1ccc2cc(Nc3nc(C(F)(F)F)co3)ccc2n1` [Example 98, N2-(2-Methoxy-benzyl)-N6-(4-trifluoromethyl-oxazol-2-yl)-quinoline-2,6-diamine], the melting point amounted to 144 °C.
For `COc1ccccc1CNc1ccc2cc(Nc3ncc(C(F)(F)F)o3)ccc2n1` [Example 99, N2-(2-Methoxy-benzyl)-N6-(5-trifluoromethyl-oxazol-2-yl)-quinoline-2,6-diamine], the melting point was found to be 166 °C.
Same read-out and setting: for `COc1ccccc1CNc1ccc2cc(Nc3ncco3)ccc2n1` [Example 100, N2-(2-Methoxy-benzyl)-N6-oxazol-2-yl-quinoline-2,6-diamine] the value was 205 °C; for `COc1ccccc1CNc1ccc2cc(Nc3cccc(C(F)(F)F)n3)ccc2n1` [Example 101, N2-(2-Methoxy-benzyl)-N6-(6-trifluoromethyl-pyridin-2-yl)-quinoline-2,6-diamine], 151 °C; for `COc1ccccc1CNc1ccc2cc(Nc3nc4cc(C)ccc4o3)ccc2n1` [Example 102, N2-(2-Methoxy-benzyl)-N6-(5-methyl-benzooxazol-2-yl)-quinoline-2,6-diamine], 220 °C.
As to `COc1ccccc1CNc1ccc2cc(Nc3cccc(CCO)c3)ccc2n1` [Example 103, 2-{3-[2-(2-Methoxy-benzylamino)-quinolin-6-ylamino]-phenyl}-ethanol], the Ki in data set [1] is 25 nM.
